Assay results from publication PMC4116523, “Novel peptides suppress VEGFR-3 activity and antagonize VEGFR-3-mediated oncogenic effects” (Oncotarget, 2014).
Bridges are numbered along the chain shown (N, C = ends). Where no end group is shown, it is not given here.

Key:
[1] = test system: human soluble protein kinase VEGFR-3 (sVEGFR-3); experiment: VEGFR-3 kinase assay ([32P]ATP, poly(Glu:Tyr); Eurofins Panlabs); assay type: biochemical; details: peptides screened at 10 μM, 0.1 μg/ml enzyme, HEPES pH 7.4, 15 min preincubation 37°C, 10 μM ATP, [γ32P]ATP, 30 min, Figure 1B
Method: Kinase assays were performed as previously described. Briefly, human soluble protein kinase VEGFR-3 (sVEGFR-3) that was expressed in insect cells was used for the kinase assays. The candidate peptides were preincubated with 0.1 μg/ml of enzyme in modified HEPES buffer pH 7.4 for 15 minutes at 37°C. The reaction was initiated by addition of 0.2 mg/ml poly(Glu:Tyr), 10 μM ATP and 0.25 μCi [γ^32P]ATP for another 30 minute incubation period and terminated by further addition of 3% H3PO4. Aliquots were removed and counted to determine the amount of [^32P] Poly(Glu:Tyr) that formed. Compounds were screened at 10 μM. All peptides were analyzed by Eurofins Panlabs Taiwan Ltd.

SOX2 = SOX2 expression by reverse transcription PCR in A549 spheres; assay type: cell-based, human; details: A549 spheres grown 10 days; Figure S6
Method: Total RNA was isolated after A549 spheres had grown for 10 days by using Trizol (Invitrogen, Carlsbad, CA), and cDNA were synthesized with Oligo dT (Thermo Scientific, Brookfield, WI). The specific primers for SOX2 were 5'-TACAACATGATGGAGACG-3' and 5'-[…]-3'. The reaction was cycled at 95°C for 40 seconds, then 56°C for 40 seconds, and then 72°C for 30 seconds for 30 cycles followed by a final extension of 72°C for 5 minutes.

[2] = test system: lymphatic endothelia cells (LECs); experiment: VEGF-C-induced VEGFR-3 phosphorylation, migration and proliferation in LECs (western blot, Boyden chamber, MTT); assay type: cell-based, human; details: MTT (96 hrs), Figure 4A
sVEGFR-3 = experiment: Competition assay of synthesized peptides with rhVEGF-C for binding to plate-bound sVEGFR-3 (ELISA); set-up: species or system human; details: sVEGFR-3 250 ng/mL coated; peptide 6 h RT, then rhVEGF-C 300 ng/mL 6 h; ELISA A450/650; mean of three independent experiments; Figure 1A
Method: Soluble VEGFR-3 (sVEGFR-3) (250 ng/mL) (Angio-Proteomie, Boston, MA) was immobilized on 96-well plates and blocked with phosphate buffer containing 1% BSA for 1 hour at room temperature. In competition experiments, peptides were incubated with the VEGFR-3-coated plates for 6 hours at room temperature. After incubation, human recombinant VEGF-C protein (rhVEGF-C, 300 ng/mL, 100 μL) was added directly to the wells without removal of the peptides and then incubated at room temperature for 6 hours. The plates were thoroughly washed with 0.1% BSA/PBS buffer (pH 8.5), and anti–VEGF-C Ab was added at 4°C for 24 hours. Biotin-conjugated goat anti-rabbit IgG antibody was added for 1 hour. HRP-conjugated streptavidin was then added for 30 minutes. The free streptavidin conjugate was washed away and freshly prepared substrate solution (TMB) was then added to each well. The reaction was allowed to stand for 15 minutes, and the color development was stopped by the addition of H3PO4 (1.0 mol/L). The absorbance at 450 nm was read with a reference wavelength of 650 nm (A450/650).

Src = experiment: Western blot of Src phosphorylation (VEGFR-3-mediated signaling pathway); assay type: cell-based, human; details: A549 and 293T/VEGFR-3 cells, rhVEGF-C, Figure 2A, 2B
Method: (§1) Cells were incubated in serum-free DMEM/F12 for 24 hours before treatment with or without rhVEGF-C (100 ng/mL). Cells were lysed in RIPA buffer [Tris-HCl (50 mM; pH 7.5), NaCl (120 mM), NP-40 (0.5%), Na3VO4 (200 mM), EDTA (100 mM), sodium deoxycholate (0.5%), SDS (1%)] for 10 minutes on ice. An equal quantity of protein from the cell lysates was resuspended in gel sample buffer, resolved by 10% SDS-PAGE, and transferred to polyvinylidene difluoride membrane membranes (Millipore Corp., Milford, MA). After blocking, membranes were incubated with specific primary antibodies and corresponding secondary antibodies. Immunoreaction signals were visualized by an enhanced chemiluminescence detection system (PerkinElmer Health Sciences, Waltham MA).

A549 lung cancer cells = experiment: Boyden chamber migration/invasion assay, A549; assay type: cell-based, human; details: peptide 100 μM, 24 hours, uncoated / matrigel-coated transwells, Figure 3
Method: (§2) Boyden chamber cell migration assays were performed using uncoated transwells and matrigel-coated transwells with membranes (8 μm pore-size) (Becton Dickinson, Mountain View, CA). The chambers were inserted into 24-well culture plates that contained DMEM/F12 with 10% fetal bovine serum. The cells were pretreated with peptide (100 μM) in serum-free DMEM/F12 medium and were loaded into the transwells. After 24 hours, non-migrated cells were removed with a cotton swab and the cells were fixed with methanol for 15 min and stained with crystal violet. The migrated cells were quantified by blind counting of the migrated cells on the lower surface of the membrane from at least 10 fields per chamber using a 20X objective. All migration and invasion assays were normalized to the proliferation rate.

A549 cells [3] = experiment: VEGF-C-induced drug resistance (Taxol, cisplatin), MTT assay; assay type: cell-based, human; details: A549, peptides 200 μM, rhVEGF-C 100 ng/mL, Taxol or cisplatin; Figure S3
Method: A549 lung cancer cells (3×10^3) were cultured in 96-well plates and serum-starved for 24 hours. Cells were treated with the candidate peptides (200 μM) for 4 hours and were treated with rhVEGF-C (100 ng/mL) for 6 hours in serum-free medium. After 48 hours, MTT (5 mg/ml) was added for 3 hours and the precipitates were dissolved in DMSO. The absorbance at 570 nm was read with a reference wavelength of 630 nm (A570/630).

[4] = test system: MDA-MB-231/VEGF-C lung metastasis; experiment: Experimental metastasis assay, MDA-MB-231/VEGF-C cells by tail vein, bioluminescent imaging of lung; assay type: in vivo; details: SCID mice, n=8, peptide 8 μg/g body weight i.v., one day before cells then twice weekly for 8 weeks; bioluminescence; control peptide P4; Figure 5
Method: All animal work was performed in accordance with protocols that were approved by the Institutional Animal Care and Use Committee of the National Health Research Institutes. All of the animal experiments were performed on 6- to 8-week-old CB-17 severe combined immunodeficient (SCID) female mice (supplied by LASCO, Taiwan) with eight animals per group. The control (P4), P5 and P6 peptides were pretreated with 8 μg/g body weight dissolved in 50 μl PBS and i.v. injected into mice one day before cancer cell injection. For experimental metastasis assays, 2.5 × 10^5 viable cells were resuspended in 0.1 mL of PBS and introduced into the circulation via tail vein injection. For the treatment, peptides were administered (8 μg/g body weight) twice weekly for 8 weeks. The luciferase-based, non-invasive bioluminescent imaging and analysis were performed with the Xenogen IVIS-200 system (Xenogen, Alameda, CA, USA).

A549 cells [5] = experiment: Sphere-forming assay (tumor initiating cells), A549; assay type: cell-based, human; details: peptide 200 μM, rhVEGF-C 200 ng/mL, 10 days non-adherent, Figure S5A
Method: (§3) A549 and MCF-7 cells were serum-starved for 24 hours. The cells were pretreated with candidate peptides (200 μM) in the presence or absence of rhVEGF-C for 24 hours. The cells were trypsinized and mechanically dissociated to generate single cells that were then seeded at a density of 1×10^3 cells/ml in serum-free DMEM/F12 medium (Invitrogen, Carlsbad, CA) that was freshly supplemented with epidermal growth factor (20 ng/ml), basic fibroblast growth factor (20 ng/ml) (R&D Systems, Minneapolis, MN), 1X B27 supplement, 1X N2 supplement (Invitrogen, Carlsbad, CA) in the presence or absence of rhVEGF-C (200 ng/mL) and candidate peptides (200 μM) in non-adherent plates for 10 days. Quantification of sphere formation was determined by measuring the percentage of 5000 spheres.

A549 cells [6] = experiment: VEGF-C-induced drug resistance (Taxol, cisplatin), DNA flow cytometric and trypan blue exclusion assays; assay type: cell-based, human; details: A549, rhVEGF-C, 20 nM Taxol or 10μM cisplatin 48 hours; flow cytometry (PI) and trypan blue exclusion; Figure 3E-3H
Method: Briefly, cells were treated with 20 nM Taxol or 10μM cisplatin and incubated for 48 hours. Samples were prepared and analyzed as previously described.
Briefly, cells were harvested using trypsin and stained with 0.4% trypan blue dye (Sigma-Aldrich). Trypan blue-positive and -negative cells were counted using a hemacytometer (Hausser Scientific, Horsham, PA) under a phase-contrast microscope (Fisher Scientific, Pittsburgh, PA). The results of each assay were expressed in terms of the percentage of dead cells relative to the total number of cells. Individual experiments were performed in triplicate.

MCF-7 cells = experiment: Sphere-forming assay (tumor initiating cells), MCF-7; assay type: cell-based, human; details: peptide 200 μM, rhVEGF-C 200 ng/mL, 10 days non-adherent, Figure S5B
Method: as §3

[7] = test system: MDA-MB-231 breast cancer cells; experiment: Boyden chamber migration/invasion assay, MDA-MB-231; assay type: cell-based, human; details: peptide 100 μM, 24 hours, uncoated / matrigel-coated transwells, Figure 3
Method: as §2

[8] = test system: various cancer cell lines (MDA-MB-231, BT474, HS578T, HBL100, MDA-MB-361, MCF-7, CL1-5, H460, H322); experiment: VEGF-C-induced VEGFR-3 phosphorylation, migration and invasion in various cancer cell lines; assay type: cell-based, human; details: various breast and lung cancer cell lines; Figure 4B-4E, Figure S4
Method: as §1
as §2, with “After 24 hours, non-migrated cells were removed with a cotton swab and the cells were fixed with methanol for 15 min and stained with crystal violet.” left out, “All migration and invasion assays were normalized to the proliferation rate.” left out

VEGFR-3 [9] = experiment: Western blot of VEGF-C-induced VEGFR-3 Tyr1063/1068 phosphorylation; assay type: cell-based, human; details: A549 and 293T/VEGFR-3 cells, peptides 24 hours, rhVEGF-C, Figure 2A, 2B
Method: as §1

VEGFR-3 [10] = experiment: KIRA-ELISA of tyr-phosphorylated VEGFR-3 in VEGF-C-treated H928 lung cancer cells; assay type: cell-based, human; details: serum-starved, peptide 30 min then rhVEGF-C 15 min, Figure 1C
Method: H928 lung cancer cells (2×10^5) were cultured in 24-well plates and serum-starved for 24 hours. Cells were pretreated with candidate peptide for 30 minutes and then treated with rhVEGF-C for 15 minutes. Cells were solubilized in RIPA lysis buffer for 60 minutes. Another 85 μl of cell lysate was transferred to an ELISA well that was coated with VEGFR-3 and incubated for 2 hours. After the plates were washed, biotinylated-4G10 antibody (500 ng/ml, 100 μl) was added and incubated for 2 hours. After the plates were washed, HRP-conjugated streptavidin was then added for 30 minutes. The free avidin conjugate was washed away and freshly prepared substrate solution (TMB) was then added to each well. The reactions were allowed to proceed for 10 minutes, and the color development was stopped by the addition of H3PO4 (1.0 mol/L). The absorbance at 450 nm was read with a reference wavelength of 650 nm (A450/650).

Sequence	inhibitory effects on VEGFR-3 kinase activity [1]	expression of SOX2 (SOX2)	VEGF-C-induced VEGFR-3 phosphorylation, cell migration and proliferation of LECs [2]	levels of sVEGFR-3-bound VEGF-C (competition with VEGF-C binding) (sVEGFR-3)	phospho-Src levels (Src)	migration and invasion (A549 lung cancer cells)	VEGF-C-induced drug resistance by MTT assay (A549 cells [3])	VEGF-C-induced lung metastasis [4]	sphere formation enhanced by VEGF-C (number and size of spheres) (A549 cells [5])	VEGF-C-induced drug resistance (A549 cells [6])	sphere formation enhanced by VEGF-C (number and size of spheres) (MCF-7 cells)	migration and invasion [7]	VEGF-C-induced VEGFR-3 phosphorylation, cell migration and invasion [8]	VEGF-C-induced VEGFR-3 Tyr1063/1068 phosphorylation (VEGFR-3 [9])	inhibitory effects on the phosphorylation of VEGFR-3 (KIRA-ELISA) (VEGFR-3 [10])
CLTSSLRSC (disulfide 1-9 (inferred)) [P8]	49%														
CNYSHLFYC (disulfide 1-9 (inferred)) [P5]	82%	decreased the expression of SOX2	abolished	reduced the levels of bound VEGF-C in a significant and dose-dependent manner	decreased phospho-Src levels	Obvious decreases	inhibit	significantly inhibited	decreased the number and size of the spheres	inhibit	decreased the number and size of the spheres	Obvious decreases	significantly inhibited	dramatic suppressive effects	highest inhibitory effects
CNDSHMKLC (disulfide 1-9 (inferred)) [P4, used as control peptide in later assays]				reduced the levels of bound VEGF-C in a significant and dose-dependent manner											
CYYWQSKYC (disulfide 1-9 (inferred)) [P7]	69%														
CYYGQSKYC (disulfide 1-9 (inferred)) [P6]	72%	decreased the expression of SOX2	abolished	reduced the levels of bound VEGF-C in a significant and dose-dependent manner	decreased phospho-Src levels	Obvious decreases	inhibit	significantly inhibited		inhibit		Obvious decreases	significantly inhibited	dramatic suppressive effects	highest inhibitory effects
